The text below walks through data of patent US6552060B1, “Asymmetric disulfides and methods of using same” (Prolx Pharmaceuticals, Inc., priority 1997, dated 2003).

Values joined by “and” are separate entries in the source; they are usually repeats but may differ in a detail not shown here. Equal entries are not always repeated. “Also recorded” adds a separate entry of the source. Where two headings read alike, the source gives them in different places. Marks after values point to notes of the source that are not given here.

The target of data set [1] is T1, Human placental thioredoxin reductase (Homo sapiens, UniProt Q16881).
T1 sequence (Q16881 1-499 isoform Q16881-5): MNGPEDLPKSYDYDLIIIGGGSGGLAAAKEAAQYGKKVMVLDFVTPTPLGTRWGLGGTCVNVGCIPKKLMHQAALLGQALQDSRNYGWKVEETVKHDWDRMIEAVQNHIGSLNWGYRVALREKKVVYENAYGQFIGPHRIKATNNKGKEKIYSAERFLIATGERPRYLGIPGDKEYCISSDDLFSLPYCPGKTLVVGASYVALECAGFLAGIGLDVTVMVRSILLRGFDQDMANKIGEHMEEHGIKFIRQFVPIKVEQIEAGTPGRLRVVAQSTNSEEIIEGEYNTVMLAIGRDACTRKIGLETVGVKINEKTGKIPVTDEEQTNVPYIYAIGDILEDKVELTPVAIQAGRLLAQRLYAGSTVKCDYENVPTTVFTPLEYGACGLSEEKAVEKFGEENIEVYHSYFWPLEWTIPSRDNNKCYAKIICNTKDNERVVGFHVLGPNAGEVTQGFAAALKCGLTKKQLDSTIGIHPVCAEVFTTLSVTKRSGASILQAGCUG
As to the kind of experiment: NADPH oxidation by thioredoxin reductase with the disulfide as substrate, or with thioredoxin and insulin as final electron acceptor and the disulfide as inhibitor. The class given is biochemical. The following applies: for Type: behaviour towards thioredoxin reductase: substrate, inhibitor or non-reactive. As for the experimental part: The thioredoxin was stored at −20° C. with 5 mM dithiothreitol which was removed before use with a desalting column (PD10, Pharmacia, Uppsala, Sweden).
Asymmetrical 2-imidazolyl disulfides which were used as a basis for further development and identified below in Table 1. In Table I, NADPH oxidation by thioredoxin reductase was measured spectrophotometrically as described with either the disulfide as the electron acceptor (substrate) or with thioredoxin and insulin as the final electron acceptor and the disulfide as inhibitors. The reactions were initiated by the addition of NADPH. Km and Ki values were calculated from Lineweaver-Burk plots of the data.
The compounds of Table 1 were synthesized by a method described previously and recrystallized prior to use. Stock solutions of the disulfides were prepared at 10 mM in ethanol and diluted in aqueous media just prior to use. N-ethylmaleimide (NEM), diamide, and DTT were obtained from Sigma Chemical Co. (St. Louis, Mo.). All other chemicals used were of reagent grade. […]

A further data set concerns the target T2, thioredoxin (Homo sapiens, UniProt P10599).
T2 construct: made in house; host or cells: E. coli
T2 sequence (P10599 1-105): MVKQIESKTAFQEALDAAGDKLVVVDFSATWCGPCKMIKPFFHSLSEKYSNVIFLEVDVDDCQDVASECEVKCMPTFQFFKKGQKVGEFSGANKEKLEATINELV
Put plainly: Direct reaction between thioredoxin and disulfides, release of 2-mercaptoimidazole at 252 nm. The following applies: for initial rate for reaction between thioredoxin and disulfide: thioredoxin 2 μM, disulfide 200 μM, pH 7.4, room temperature. The class given is biochemical. As for the experimental part:
The effects of the assymetric disulfides of Table I on the reduction of thioredoxin and C73S by thioredoxin reductase was measured spectrophotometrically by following the reduction of NADPH at 339 nm. […] In some studies the disulfides at 3.5 μM were preincubated for up to 24 hr at room temperature in air with 0.7 μM thioredoxin or C73S in 100 μM HEPES buffer, pH 7.6, and 5 mM EDTA, before measuring the reduction of the thioredoxin or C73S by thioredoxin reductase with 1 mg/ml bovine insulin as the final electron acceptor. The ability of the disulfides to act as substrates for glutathione reductase was measured by following the reduction of NADPH using an incubation mixture containing 0.15 μg/ml glutathione reductase, 140 μM NADPH, 100 mM HEPES buffer, pH 7.6, 5 mM EDTA and the disulfides at 500 μM. The ability of the disulfides to act as inhibitors of glutathione reductase was measured using oxidized glutathione, 50 μM, as the final electron acceptor. In both cases the reaction was initiated by the addition of NADPH. Thioredoxin or C32S/C35S, 2 μM, in 0.1 M sodium phosphate buffer, pH 7.4, was reacted with the disulfides at a concentration of 200 μM at room temperature. This direct reaction between thioredoxin and the disulfides was followed spectrophotometrically as the increase in absorbance at 252 nm due to release of 2-mercaptoimidazole. Initial reaction rates were measured in triplicate.
Due to the fact that the disulfides inhibited thioredoxin-dependent cell growth at concentrations below those required to inhibit thioredoxin reductase, a direct effect of the disulfides on thioredoxin was looked for. The initial reaction between the disulfides and thioredoxin was measured spectrophotometrically (FIGS. 2A and 2B). […] This is the order of reactivity which be predicted from the steric and electronic nature of the disulfides thioalkylating groups.

Data set [2] has as its system MCF-7 breast cancer cells in scid mice. Put plainly: Activity against MCF-7 breast cancer cells in scid mice. The data set is classed as in vivo. The following applies: for T/C %: tumor volume treated versus control at day 28; for tumor inhibition: MCF-7 tumor system. An excerpt: This is shown below in Table II.
The nature of a further data set: in vitro. The following applies: mouse.
Another data set concerns the target T3, TR/Trx (Homo sapiens, UniProt Q16881).
T3 sequence (Q16881 1-499 isoform Q16881-5): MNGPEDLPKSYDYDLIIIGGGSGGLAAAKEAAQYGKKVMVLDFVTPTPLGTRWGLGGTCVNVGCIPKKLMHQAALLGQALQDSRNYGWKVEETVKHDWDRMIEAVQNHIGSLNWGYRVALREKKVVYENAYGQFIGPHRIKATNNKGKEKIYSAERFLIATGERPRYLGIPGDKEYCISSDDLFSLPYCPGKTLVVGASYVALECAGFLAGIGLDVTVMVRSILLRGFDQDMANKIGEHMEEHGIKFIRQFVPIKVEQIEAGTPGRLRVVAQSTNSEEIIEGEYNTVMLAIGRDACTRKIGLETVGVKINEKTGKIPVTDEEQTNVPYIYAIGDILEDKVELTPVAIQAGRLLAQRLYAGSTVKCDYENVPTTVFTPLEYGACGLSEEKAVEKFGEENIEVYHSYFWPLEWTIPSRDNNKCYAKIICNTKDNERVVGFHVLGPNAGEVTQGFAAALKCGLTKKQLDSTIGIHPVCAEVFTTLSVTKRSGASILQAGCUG
As to the kind of experiment: Thioredoxin dependent reduction of insulin by human thioredoxin reductase and NADPH (IC50 TR/Trx, 96 well). The class given is biochemical. An excerpt:
When referring to the particular system being analyzed IC50 is typically followed by an abbreviation referring to that system (i.e., IC50 TR/Trx for the above described thioredoxin redox system which is comprised of thioredoxin reductase and thioredoxin).
A second plate was used for the assessment of biological activity or as a biological screen. Aliquots of disulfides dissolved in DMSO, were be transferred into 96 well plates. The assay to assess their ability to inhibit thioredoxin reductase measures the thioredoxin dependent reduction of insulin by human thioredoxin reductase and NADPH. The effects of the disulfides on the reduction of Trx by TR were measured spectrophotometrically by following the reduction of NADPH at 339 nm with insulin as the final electron acceptor in a buffered mixture of TR, Trx, NADPH and insulin.

In data set [3] the test system is EMT6 mouse mammary tumor cells. As to conditions: 48 h.
For a further data set, the system named is HL60 cells. Put plainly: Induction of apoptosis in HL60 cells. The class given is cell-based, human. As to conditions: within 8 h of exposure, same concentration.
For data set [4], the system named is MCF-7 human breast cancer cells. Put plainly: Thioredoxin and serum dependent growth of MCF-7 cells. The class given is cell-based. The following applies: 48 hr. As for the experimental part:
MCF-7 human breast cancer cells were obtained from the American Tissue Type Collection (Rockville, Md.). Cultures were maintained in Dulbecco's Modified Eagles' medium (DMEM) containing 10% fetal bovine serum (fbs) at 37° C. and 6% CO2, and passaged at 75% confluence using 0.025% trypsin. The effect of the disulfides on cell proliferation was measured as previously described and incorporated herein by reference. Briefly, 10^5 cells were plated in a 35 mm culture dish in the above medium and, after attachment for 24 hr, their growth was arrested by changing to DMEM with 0.5% fbs for 48 hr. The medium was then replaced with DMEM containing 10% fbs or 1 μM thioredoxin, with or without the disulfides. The cell number was measured 2 days later following detachment with 0.025% trypsin using a hemocytometer.
The effects of the disulfides on the growth of human MCF-7 breast cancer cells is shown graphically in FIG. 1. […] The cells were growth arrested in medium with 0.5% serum for 48 hr at which time there were 0.2×10^6 cells. DMEM with 1 mM thioredoxin (open symbols) or 10% serum (filled symbols) was added and the increase in cell number over a 48 hr period was measured in the presence of various concentrations of the disulfides. Values are means±SEM. n=6.

A further data set has as its system human primary tumors. Put plainly: Growth of human primary tumors in soft agarose. The data set is classed as cell-based.
In data set [5] the test system is thioredoxin transfected MCF-7 cells. Put plainly: Apoptosis in MCF-7 cells transfected with human thioredoxin cDNA. The following applies: 30 μM, apoptosis measured 48 h later.
For data set [6], the system named is MCF-7 breast cancer cells. As to conditions: read-out: EC50 for growth stimulation; cited from earlier work.
Setting [7] is: MCF7, in the presence of 1 μM thioredoxin, read-out: IC50 thioredoxin dependent proliferation.
Where [8] appears, read: MCF7, with 10% fetal bovine serum, read-out: IC50 serum dependent growth.

`c1ccc(CSSc2ncc[nH]2)cc1` [DLK-36, benzyl 2-imidazolyl disulfide]: the Type result in [1] is “competitive inhibitors; also recorded: inhibitor”. The affinity in data set [1] (competitive inhibitors of the reduction of thioredoxin by thioredoxin reductase), expressed as Ki, was 31 µM. Moreover, the “initial rate for reaction between thioredoxin and disulfide” value (shortened to “initial rate”) on thioredoxin is 1.3e-06 M/s. Further, the Toxicity dead/injected is listed as 1/8 in data set [2] (25 mg/kg/day i.p. for 14 days) and 0/6 in data set [2] (40 mg/kg/day i.p. for 14 days). In addition, the T/C % is 100.7% in data set [2] (25 mg/kg/day i.p. for 14 days) and 23.7^c % in data set [2] (40 mg/kg/day i.p. for 14 days). The tumor inhibition in data set [2] amounted to 65%. In “in vitro”, this molecule returned an IC50 at 48 h of 22 µM.
With `CCC(C)SSc1ncnc2[nH]cnc12` (stereo not drawn) [Compound F-7], the IC50 at TR/Trx (Table 3, read-out: IC50 TR/Trx (converted)) was 95.7 µM; in data set [3], more than 180 µM. This molecule also registered an IC50 at 48 h in the data set “in vitro” of more than 180 µM.
`CC(C)(C)SSc1ncc[nH]1` [IX-2, t-butyl 2-imidazolyl disulfide]: in data set [1], the Type result is reported as “non-reactive”. Also, the “rate of thiol/disulfide exchange reaction with thioredoxin relative to III-2” value at thioredoxin is on record as “three logs slower”. Besides, at thioredoxin (unit not given, in M/s), the “initial rate” value is on record as 3.0×10^−9. For the same molecule, the “apoptosis of HL60 cells” value with HL60 cells is “does not cause apoptosis”.
In the case of `CC(C)SSCc1ccccc1` [Compound E-19], in [3], the IC50 is 25 µM. The same molecule displayed an IC50 at 48 h in “in vitro” of 42 µM.
With `CCC(C)SSc1ncc[nH]1` (stereo not drawn) [IV-2, 1-methylpropyl 2-imidazolyl disulfide], the Type result in data set [1] is “competitive inhibitors; also recorded: inhibitor”. The IC50 is 1.2 µM in data set [4] (setting [7]) and 3.2 µM in data set [4] (setting [8]). At thioredoxin, the “initial rate” value worked out at 2.8e-07 M/s. Further, the T/C % in [2] (5 mg/kg/day i.p. for 14 days) is given as 56.7%; in data set [2] (10 mg/kg/day i.p. for 14 days), 45.9^c %; in data set [2] (15 mg/kg/day i.p. for 14 days), 2.3^c %. The molecule further showed a tumor inhibition in [2] of 98%. Further, the “apoptosis of HL60 cells” value in the data set on HL60 cells is reported as “stimulated to apoptose”. The “growth of human primary tumors in soft agarose” value with human primary tumors was “inhibited”. The IC50 at 48 h in “in vitro” is 19 µM. Further, in data set [5], the “apoptosis induced in thioredoxin transfected cells” value is given as “became resistant to apoptosis”.
Regarding `CCCCSSc1ncc[nH]1` [III-2, n-butyl 2-imidazolyl disulfide], in [1], the Type entry is on record as “substrate”. Moreover, the Km – broadly, the concentration of substrate that gives half-maximal velocity – in data set [1] (disulfide as substrate for reduction by thioredoxin reductase, Lineweaver-Burk) is 43 µM and 43.1 µM. Besides, the IC50 in data set [4] (setting [7]) was 0.2 µM; in data set [4] (setting [8]) it was 35 µM; on TR/Trx (Table 4, read-out: Disulfide inhibition of TR/Trx (IC50 TR/Trx) (converted)), 117 µM. Further, the “initial rate” value on thioredoxin is 7.3e-07 M/s. For the same molecule, the Toxicity dead/injected in data set [2] (6 mg/kg/day i.p. for 14 days) is reported as 0/8; in [2] (12 mg/kg/day i.p. for 14 days) it was 0/8; in data set [2] (18 mg/kg/day i.p. for 14 days), 1/8. Further, the T/C % is listed as 48.9^c % in [2] (6 mg/kg/day i.p. for 14 days), 56.6^c % in [2] (12 mg/kg/day i.p. for 14 days) and 100.2% in data set [2] (18 mg/kg/day i.p. for 14 days). For the same molecule, the “apoptosis of HL60 cells” value in the data set with HL60 cells is on record as “stimulated to apoptose”. The molecule further had an IC50 at 48 h in the data set “in vitro” of 12 µM.

B1: thioredoxin: low molecular weight redox protein; human recombinant thioredoxin stimulates proliferation of cancer cells (protein, UniProt P10599 2-105, looked up)
Thioredoxin: VKQIESKTAFQEALDAAGDKLVVVDFSATWCGPCKMIKPFFHSLSEKYSNVIFLEVDVDDCQDVASECEVKCMPTFQFFKKGQKVGEFSGANKEKLEATINELV
Consider B1, for which, in [6], the concentration giving a half-maximal response (EC50) (as a rule, the concentration giving half of the maximal effect) was 0.35 µM.
